Results: patent US12565680B2, “Cancer neoantigens and their utilities in cancer vaccines and TCR-based cancer immunotherapy” (THE METHODIST HOSPITAL SYSTEM, priority 2018, dated 2026)

Columns and labels:
Raji lymphoma cells = conditions: mouse
Description: (§1) Both CAR and luciferase were transduced into activated T cells and transfer into NSG mice that have been injected with Raji lymphoma cells.

CAR-T cells = test system: CAR-T cells
Description: as §1

primary human T cells = conditions: OKT3 activated T cells, day 12, CD45RO^− CCR7^+ CD62L^+
[1] = test system: MDA-MB-231 cells expressing HLA-A2 and NY-ESO-1; conditions: mouse
Description: A breast cancer model was established using MDA-MB-231 cells expressing HLA-A2 and NY-ESO-1 antigen in 8 weeks old NOD-scid IL2Rγnull (NSG) mice.

[2] = test system: A2ESO TCR-transduced CD4^+ T cells
Procedure: It was hypothesized that the improvement killing ability of CD4^+ T cells due to ThPOK knockdown is procedure of T-cell reprogramming via epigenetic regulation. To distinguish how ThPOK reprogrammed CD4^+ T cells to cytolytic CD4^+ T cells, a screening of A2ESO TCR-transduced CD4^+ T cells treated by various epigenetic inhibitors was performed.

A2ESO TCR-T cells = test system: A2ESO TCR-T cells
Procedure: Activated human T cells were transduced on day 2 and day 3 with A2ESO TCR viruses that were packaged by PG13-A2ESO TCR clone. […] To investigate the functional change of A2ESO TCR-T cells after 2-PCPA treatment, intracellular staining (ICS) was performed to check the expression of effector cytokines, targeting IL-2, IFN-γ and TNF-α. […] Another key feature of less-differentiated T cell is increased oxidative metabolism and mitochondrial respiratory capacity.

136TIL = assay: Intracellular staining of IFN-γ after neoantigen peptide stimulation, 136TIL; assay type: cell-based, human
Description: Among them, MAPK9 and ANKIB1 neoantigen-specific CD4^+ T cells accounted for 14.3% and 5.2% in the total T cell population, which accounted for 58% and 21% in the total tumor-reactive CD4^+ T cell population, respectively (FIG. 11B). By contrast, other neoantigen-specific CD4^+ T cells accounted for only a small percentage of T cells in the total T cell population (FIG. 11A). Since HHAT is only one MHC-I neoantigen, it was shown that HHAT neoantigen-specific CD8^+ T cells accounted for 10.6% in the total T cell population when stimulation with HHAT peptide (FIG. 11A), which accounted for 73% in the total tumor-reactive CD8^+ T cell population (FIG. 11B).
T cells were stimulated by various in vitro methods, such as tumor cells, peptides or DNA encoding neoantigens, etc. and induced to release cytokines. Stimulated T cells were resuspended in 100 μl of Cytofix/Cytoperm solution (BD Biosciences) per well for microwell plates (or 250 μl for tubes) and incubated for 20 min at 4° C. for cell fixation. Fixed cells were permeabilized by washing twice in 1× Perm/Wash buffer (BD Biosciences). Then the fixed/permeabilized cells were thoroughly resuspended in 50 μl of 1× Perm/Wash buffer containing 1 μl of phycoerythrin (PE)-conjugated IFN-γ antibody (Thermo Fisher Scientific) and incubate at 4° C. for 30 min in the dark. After that the cells were washed twice with 1× Perm/Wash buffer and ready for flow cytometric analysis.

[3] = test system: CD8^+ T cells isolated from 136 TILs; assay: T-cell reactivity assay (ELISA): TMGs in MHC-I expressing Cos7 cells; assay type: cell-based, human; conditions: Cos7-A1, Cos7-B8, Cos7-C7 cells
Description: To identify MHC-I neoantigens, MHC-I expressing Cos7 cells were transfected (Cos7-A1, Cos7-B8 and Cos7-C7) cells with 35 TMGs, respectively, followed by adding CD8^+ T cells isolated from 136 TILs. […] To exclude the possibility that other MHC-I and II molecules could also present neoantigens for T cell recognition, fibroblasts were generated from patient #136 tumor samples and used as APCs to express all MHC I and II molecules after IFN-γ pretreatment (FIG. 9C). The IFN-γ—pretreated fibroblasts were electroporated with in IVT mRNA of 136 mel TMGs, and then co-cultured with 136TILs.

Row | Compound | in vivo proliferation of CAR-T cells (in vivo imaging) (Raji lymphoma cells) | memory phenotype of CAR-T cells (CAR-T cells) | metabolic reprogramming effect on CAR-T cells (CAR-T cells) | in vitro survival of CAR-T cells (CAR-T cells; IL-2 free condition) | population of Tscm (primary human T cells) | in vivo anti-tumor function of A2ESO TCR-T cells [1] | memory phenotype of T cells after adoptive transfer ([1]; in vivo) | cytolytic activity of CD4^+ TCR-T cells [2] | oxidative metabolism and spare respiratory capacity (A2ESO TCR-T cells) | Tscm and Tcm percentages in A2ESO TCR-T cells (A2ESO TCR-T cells; 8 uM) | frequency of A2ESO TCR-T cells with polyfunctional cytokine secretion (A2ESO TCR-T cells; ICS for IL-2, IFN-γ and TNF-α) | in vitro survival effect on A2ESO TCR-T cells (A2ESO TCR-T cells; IL-2 free condition) | in vitro proliferation (CFSE) (A2ESO TCR-T cells; stimulation with IL-2 or 231-ESO cells) | neoantigen-specific CD8^+ T cells in the total T cell population (136TIL) [%] | share in the total tumor-reactive CD8^+ T cell population (136TIL) [%] | activation of CD8^+ T cell response [3]
1 | NC1CC1c1ccccc1 (stereo not shown) [2-PCPA] | grew faster than control CAR-T cells | similarly increased the frequencies of less-differentiated memory T cells subsets | consistent with its effect on A2ESO TCR-T cells | survived better | increased the population of Tscm in both CD4^+ and CD8^+ T cells | significantly enhanced | maintained higher frequency of both Tscm and Tcm cells | dramatically enhanced the cytolytic activity | increased oxidative metabolism and elevated spare respiratory capacity (SRC) | increased both Tscm and Tcm percentages | slightly increased | not seen | high proliferation potential |  |  | 
2 | TSMLILSNLVFLEGNEVGKTYWNRI [HHAT] |  |  |  |  |  |  |  |  |  |  |  |  |  | 10.6 | 73 | HLA-A1 restricted neoantigen
